Consider 18 compounds from PubChem BioAssay AID248 (DTP/NCI, 2004).

The subject of the assay is L1210 leukemia ip in BDF1 mice, survival T/C. Kind of assay: NCI In Vivo Anticancer Drug Screen. Data for tumor model L1210 Leukemia (intraperitoneal) in B6D2F1 (BDF1) mice. The note with it: endpoint: mean survival time, higher = longer survival. The method in brief: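 Tumor cells were implanted, animals were treated, and survival was followed. The result divides the treated measurement by the vehicle-control measurement.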

Where [1] appears, read: dose: 100.0 mg/kg/injection, schedule: Q04DX003 (ip), vehicle: Klucel (hydroxypropylcellulose) (HPC).
[2] abbreviates: dose: 200.0 mg/kg/injection, schedule: Q04DX003 (ip), vehicle: Klucel (hydroxypropylcellulose) (HPC).
[3] abbreviates: dose: 400.0 mg/kg/injection, schedule: Q04DX003 (ip), vehicle: Klucel (hydroxypropylcellulose) (HPC).
[4] abbreviates: dose: 100.0 mg/kg/injection, schedule: Q04DX003 (ip), vehicle: saline.
[5] abbreviates: dose: 200.0 mg/kg/injection, schedule: Q04DX003 (ip), vehicle: saline.
Where [6] appears, read: dose: 400.0 mg/kg/injection, schedule: Q04DX003 (ip), vehicle: saline.
Where [7] appears, read: dose: 100.0 mg/kg/injection, schedule: Q01DX009 (ip), vehicle: Klucel (hydroxypropylcellulose) (HPC).
[8] abbreviates: dose: 200.0 mg/kg/injection, schedule: Q01DX009 (ip), vehicle: Klucel (hydroxypropylcellulose) (HPC).

The structures appear in SMILES notation. Inconclusive results and toxic doses are left out.

Regarding `O=C(Nc1cccc(Cl)c1)Oc1ccc(S(=O)(=O)F)cc1Cl`, the T/C is, setting by setting: (dose: 100.0 mg/kg/injection, schedule: Q04DX002 (ip), vehicle: saline with Tween-80) 94 % of control; (dose: 200.0 mg/kg/injection, schedule: Q04DX002 (ip), vehicle: saline with Tween-80) 91 % of control.
For `Clc1c(Cl)c(Cl)c2n[nH]nc2c1Cl`, the T/C (dose: 75.0 mg/kg/injection, schedule: Q01DX001 (ip), vehicle: saline) is 96 % of control.
As for `Nc1nc(SCc2ccccc2)c2ncn(C3CC(O)C(CO)O3)c2n1` (configuration not stated), the T/C is, setting by setting: (dose: 7.0 mg/kg/injection, schedule: Q01DX015 (ip), vehicle: saline) 118 % of control; (dose: 12.0 mg/kg/injection, schedule: Q01DX015 (ip), vehicle: saline) 168 % of control; (dose: 20.0 mg/kg/injection, schedule: Q01DX015 (ip), vehicle: saline) 172 % of control; (dose: 34.0 mg/kg/injection, schedule: Q01DX015 (ip), vehicle: saline) 153 % of control; (dose: 100.0 mg/kg/injection, schedule: Q01DX005 (ip), vehicle: saline) 97 % of control; (dose: 200.0 mg/kg/injection, schedule: Q01DX005 (ip), vehicle: saline) 113 % of control. Further, the T/C (dose: 400.0 mg/kg/injection, schedule: Q01DX001 (ip), vehicle: saline) was 157 % of control.
On to `Cc1c[n+]2ccc3ccccc3c2c2ccccc12`, for which the T/C was 100 % of control (dose: 1.0 mg/kg/injection, schedule: Q01DX015 (ip), vehicle: carboxymethylcellulose (CMC)); 94 % of control (dose: 1.25 mg/kg/injection, schedule: Q01DX009 (ip), vehicle: saline); 105 % of control (dose: 2.0 mg/kg/injection, schedule: Q01DX015 (ip), vehicle: carboxymethylcellulose (CMC)); 95 % of control (dose: 2.5 mg/kg/injection, schedule: Q01DX009 (ip), vehicle: saline); 103 % of control (dose: 2.5 mg/kg/injection, schedule: Q04DX003 (ip), vehicle: acetone); 117 % of control (dose: 4.0 mg/kg/injection, schedule: Q01DX015 (ip), vehicle: carboxymethylcellulose (CMC)). Also, the T/C is, setting by setting: (dose: 5.0 mg/kg/injection, schedule: Q01DX001 (ip), vehicle: acetone) 106 % of control; (dose: 5.0 mg/kg/injection, schedule: Q01DX009 (ip), vehicle: saline) 113 % of control; (dose: 5.0 mg/kg/injection, schedule: Q04DX003 (ip), vehicle: acetone) 101 % of control; (dose: 7.0 mg/kg/injection, schedule: Q01DX009 (ip), vehicle: saline) 113 % of control; (dose: 8.0 mg/kg/injection, schedule: Q01DX015 (ip), vehicle: carboxymethylcellulose (CMC)) 112 % of control; (dose: 10.0 mg/kg/injection, schedule: Q01DX001 (ip), vehicle: acetone) 117 % of control.
As to `CCCOC(=O)COc1ccc(Cl)cc1C`, the T/C under setting [1] is 96 % of control, the T/C under setting [2] was 96 % of control and the T/C under setting [3] is 91 % of control.
As to `COc1nc(=S)n2[nH]cnc2n1`, the T/C by setting is: (dose: 12.5 mg/kg/injection, schedule: Q01DX009 (ip), vehicle: saline) 89 % of control; (dose: 25.0 mg/kg/injection, schedule: Q01DX009 (ip), vehicle: saline) 94 % of control; (dose: 50.0 mg/kg/injection, schedule: Q01DX009 (ip), vehicle: saline) 109 % of control; (dose: 50.0 mg/kg/injection, schedule: Q04DX003 (ip), vehicle: saline) 102 % of control; under setting [4], 91 % of control; under setting [5], 92 % of control.
As for `Oc1cc(O)c(CN2CCCCC2)cc1CN1CCCCC1`, the T/C (dose: 100.0 mg/kg/injection, schedule: Q01DX001 (ip), vehicle: saline) was 87 % of control.
Turning to `O=C(NO)c1ccc(F)cc1`, the T/C was 103 % of control (dose: 100.0 mg/kg/injection, schedule: Q01DX001 (ip), vehicle: carboxymethylcellulose (CMC)); 97 % of control (dose: 200.0 mg/kg/injection, schedule: Q01DX001 (ip), vehicle: carboxymethylcellulose (CMC)); 92 % of control (dose: 400.0 mg/kg/injection, schedule: Q01DX001 (ip), vehicle: carboxymethylcellulose (CMC)).
In the case of `Nc1ccnc(Br)c1`, the T/C is 103 % of control (dose: 100.0 mg/kg/injection, schedule: Q01DX009 (ip), vehicle: saline); 109 % of control under setting [4]; 100 % of control (dose: 200.0 mg/kg/injection, schedule: Q01DX009 (ip), vehicle: saline); 107 % of control under setting [5]; 101 % of control (dose: 400.0 mg/kg/injection, schedule: Q01DX009 (ip), vehicle: saline); 112 % of control under setting [6].
Consider `CC(=O)SCN1C(=O)C2C3CCC(O3)C2C1=O` (configuration not stated), for which the T/C is, setting by setting: (dose: 100.0 mg/kg/injection, schedule: Q04DX002 (ip), vehicle: Klucel (hydroxypropylcellulose) (HPC)) 91 % of control; (dose: 200.0 mg/kg/injection, schedule: Q04DX002 (ip), vehicle: Klucel (hydroxypropylcellulose) (HPC)) 91 % of control; (dose: 400.0 mg/kg/injection, schedule: Q04DX002 (ip), vehicle: Klucel (hydroxypropylcellulose) (HPC)) 105 % of control.
Regarding `CC(C)COC(=O)CCCc1ccc(N(CCCl)CCCl)cc1`, the T/C was 121 % of control (dose: 100.0 mg/kg/injection, schedule: Q04DX002 (ip), vehicle: saline) and 111 % of control (dose: 200.0 mg/kg/injection, schedule: Q04DX002 (ip), vehicle: saline).
For `Oc1c(Cl)cc(C(c2cc(Cl)c(O)c(Cl)c2)C(c2cc(Cl)c(O)c(Cl)c2)c2cc(Cl)c(O)c(Cl)c2)cc1Cl`, the T/C was 101 % of control under setting [4], 96 % of control under setting [5] and 103 % of control under setting [6].
Consider `CC(=O)NC1CC2c3ccccc3C1([N+](=O)[O-])c1ccccc12` (configuration not stated), for which the T/C is 107 % of control under setting [7]; 107 % of control under setting [1]; 107 % of control under setting [4]; 101 % of control under setting [8]; 105 % of control under setting [2]; 105 % of control under setting [5]. Also, the T/C by setting is: (dose: 400.0 mg/kg/injection, schedule: Q01DX009 (ip), vehicle: Klucel (hydroxypropylcellulose) (HPC)) 97 % of control; under setting [3], 97 % of control; under setting [6], 97 % of control.
In the case of `CCCCCCCCCCCCC/C=C\C(=O)N(CCCCN(C)C)CCCCN(C)C`, the T/C reads like this: (dose: 2.0 mg/kg/injection, schedule: Q01DX009 (ip), vehicle: carboxymethylcellulose (CMC)) 107 % of control; (dose: 4.0 mg/kg/injection, schedule: Q01DX009 (ip), vehicle: carboxymethylcellulose (CMC)) 104 % of control; (dose: 6.0 mg/kg/injection, schedule: Q01DX009 (ip), vehicle: carboxymethylcellulose (CMC)) 101 % of control; (dose: 8.0 mg/kg/injection, schedule: Q01DX009 (ip), vehicle: carboxymethylcellulose (CMC)) 103 % of control; (dose: 10.0 mg/kg/injection, schedule: Q01DX009 (ip), vehicle: carboxymethylcellulose (CMC)) 90 % of control.
For the compound `Cc1ccccc1C1(c2ccccc2C)OC(=O)c2ccccc21`, the T/C is, setting by setting: (dose: 100.0 mg/kg/injection, schedule: Q01DX009 (ip), vehicle: saline with Tween-80) 93 % of control; (dose: 200.0 mg/kg/injection, schedule: Q01DX009 (ip), vehicle: saline with Tween-80) 89 % of control; (dose: 400.0 mg/kg/injection, schedule: Q01DX009 (ip), vehicle: saline with Tween-80) 90 % of control.
Take `O=C(Nc1ccc2ncccc2c1)Nc1ccc2ncccc2c1`: the T/C is, setting by setting: (dose: 50.0 mg/kg/injection, schedule: Q01DX009 (ip), vehicle: Klucel (hydroxypropylcellulose) (HPC)) 90 % of control; (dose: 50.0 mg/kg/injection, schedule: Q04DX003 (ip), vehicle: Klucel (hydroxypropylcellulose) (HPC)) 89 % of control; under setting [7], 93 % of control; under setting [8], 93 % of control; under setting [2], 86 % of control.
With `COC(=O)c1cccc2ccc3ccccc3c12`, the T/C (dose: 75.0 mg/kg/injection, schedule: Q04DX003 (ip), vehicle: saline) was 97 % of control; the T/C (dose: 150.0 mg/kg/injection, schedule: Q04DX003 (ip), vehicle: saline) was 103 % of control; the T/C (dose: 300.0 mg/kg/injection, schedule: Q04DX003 (ip), vehicle: saline) is 94 % of control.
With `C[n+]1cc(N)cc2ccccc21`, the T/C was 105 % of control (dose: 10.0 mg/kg/injection, schedule: Q01DX001 (ip), vehicle: other); 105 % of control (dose: 20.0 mg/kg/injection, schedule: Q01DX001 (ip), vehicle: other); 109 % of control (dose: 40.0 mg/kg/injection, schedule: Q01DX001 (ip), vehicle: other).
